Assay results published in patent US20250171451A1, “NOVEL HETEROCYCLIC COMPOUND AND PHARMACEUTICAL COMPOSITION COMPRISING SAME” (Samjin Pharmaceutical Co., Ltd., priority 2022, published 2025).

Legend:
[1] = molecular target: T1, recombinant GST-TEAD1 proteins (209 to 426 a.a.) (Homo sapiens, UniProt P28347); experiment: Evaluation of palmitoylation of TEAD protein; assay type: biochemical; conditions: 5 μM compound, 15 minutes preincubation, 3 μM alkyne palmitoyl-CoA 30 minutes, pH 6.4, vs DMSO control
T1 construct: recombinant GST-TEAD1 proteins (209 to 426 a.a.)
T1 sequence (P28347 209-426): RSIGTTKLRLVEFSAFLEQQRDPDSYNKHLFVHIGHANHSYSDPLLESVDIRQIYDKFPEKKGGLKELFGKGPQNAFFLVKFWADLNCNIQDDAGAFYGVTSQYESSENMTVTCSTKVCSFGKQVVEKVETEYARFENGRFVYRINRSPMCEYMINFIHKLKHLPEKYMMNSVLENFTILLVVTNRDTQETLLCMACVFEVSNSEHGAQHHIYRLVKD
Protocol: Each compound corresponding to a concentration of 5 μM was added to recombinant GST-TEAD1 proteins (209 to 426 a.a.) and cultured for 15 minutes. For an autopalmitoylation reaction of proteins after culturing, 3 μM alkyne palmitoyl-CoA (Cayman chemical) and 50 mM MES buffer (pH 6.4) were added and cultured for 30 minutes, after which 1% of sodium dodecyl sulfate (SDS) was added to stop the reaction. After that, biotinylation was performed through a CLICK (Click chemistry tools) reaction, and then a protein solution was concentrated to prepare a sample.
Analysis of the sample was performed using SDS-PAGE and streptavidin HRP (Thermo scientific). The resulting values were quantified using an Image J (NIH). For the intensity of the band obtained from Streptavidin blot, a palmitoylation inhibitory activity was analyzed based on the control group (DMSO). The normalization of each sample was performed using an anti-GST (91G1) (cell signaling) antibody.

[2] = test system: TEAD response element (TRE) luciferase reporter in MCF-7 cell lines; experiment: TEAD response element (TRE) reporter assay; assay type: cell-based; conditions: Homo sapiens, MCF7; 0.2 μM compound, 24 hours, MCF-7 TEAD reporter cells, relative to vehicle (1% DMSO)
Protocol: MCF-7 cell lines injected with TEAD reporter genes expressing firefly luciferase upon activation of TEAD response element (TRE) were obtained from BPS bioscience (#60618). The TEAD reporter genes were injected to stable expression in the MCF-7 cell lines.
TEAD reporter genes expressing firefly luciferase upon activation of TEAD response element (TRE) were injected with TEAD reporter genes to ensure stable expression of the TEAD reporter genes. Here, the TEAD reporter genes expresses firefly luciferase upon activation of TEAD response element (TRE). The cells were cultured in a cell-only culture medium (BPS bioscience) to which 10 μg/mL insulin (Sigma) was added at 37° C. and 5% CO2.
In 24 hours after dispensing said cells into a 96-well plate, each of the compounds of the examples or a vehicle solvent (final 1% DMSO) was treated by being diluted with a serum-free culture medium so that the final concentration became 0.2 μM. In 24 hours after said treatment, a luciferase assay working solution (ONE-Step Luciferase assay reagent; BPS bioscience) containing a luciferase substrate was treated in each well at 100 μL, and then left in a shaker for 15 minutes to be well mixed. Then, a degree of luminescence generated by luciferase expressed according to TEAD activation was measured by a microplate reader (TECAN). A relative activity of luciferase […], and the results are shown in table 8 below.

| SMILES | inhibition at 5 µM [1] [%] | inhibition at 0.2 µM [2] [%] |
| --- | --- | --- |
| C=CC(=O)Nc1cnc2c(ccn2-c2ccc(C(F)(F)F)cc2)c1 [Compound 36, N-(1-(4-(trifluoromethyl)phenyl)-1H-pyrrolo[2,3-b]pyridin-5-yl)acrylamide] | > 80 | > 50 |
| C=CC(=O)Nc1ccc2c(cnn2Cc2ccc(C(F)(F)F)cc2)c1 [Compound 6, N-(1-(4-(trifluoromethyl)benzyl)-1H-indazol-5-yl)acrylamide] | > 80 | 30 to 50 |
| C=CC(=O)Nc1cnc2c(ccn2Cc2ccc(C(F)(F)F)cc2)n1 [Compound 15, N-(5-(4-(trifluoromethyl)benzyl)-5H-pyrrolo[2,3-b]pyrazin-2-yl)acrylamide] | > 80 | > 50 |
| C=CC(=O)Nc1cnc2c(c1)c(C)cn2Cc1cccc(C(F)(F)F)c1 [Compound 55, N-(3-methyl-1-(3-(trifluoromethyl)benzyl)-1H-pyrrolo[2,3-b]pyridin-5-yl)acrylamide] | 40 to 80 | > 50 |
| C=CC(=O)Nc1cnc2c(c1)c(C)cn2CC1CCC(F)(F)CC1 [Compound 10, N-(1-((4,4-difluorocyclohexyl)methyl)-3-methyl-1H-pyrrolo[2,3-b]pyridin-5-yl)acrylamide] | > 80 | > 50 |
| C=CC(=O)Nc1cnc2c(c1)c(C)nn2Cc1ccc(C(F)(F)F)cc1 [Compound 13, N-(3-methyl-1-(4-(trifluoromethyl)benzyl)-1H-pyrazolo[3,4-b]pyridin-5-yl)acrylamide] | > 80 | 30 to 50 |
| C=CC(=O)Nc1cnc2c(c1)c(C)cn2Cc1ccc(OC(F)(F)F)cc1 [Compound 45, N-(3-methyl-1-(4-(trifluoromethoxy)benzyl)-1H-pyrrolo[2,3-b]pyridin-5-yl)acrylamide] | 40 to 80 | > 50 |
| C=CC(=O)Nc1cc2ccn(Cc3ccc(C(F)(F)F)cc3)c2cn1 [Compound 29, N-(1-(4-(trifluoromethyl)benzyl)-1H-pyrrolo[2,3-c]pyridin-5-yl)acrylamide] | 40 to 80 | < 30 |
| C=CC(=O)Nc1cnc2c(ccn2Cc2ccc(C(F)(F)F)cc2)c1 [Compound 4, N-(1-(4-(trifluoromethyl)benzyl)-1H-pyrrolo[2,3-b]pyridin-5-yl)acrylamide] | 40 to 80 | 30 to 50 |
| Cc1cn(Cc2ccc(C(F)(F)F)cc2)c2ncc(NC(=O)C(C)C)cc12 [Compound 25, N-(3-methyl-1-(4-(trifluoromethyl)benzyl)-1H-pyrrolo[2,3-b]pyridin-5-yl)isobutyramide] | 40 to 80 | < 30 |
| C=CC(=O)Nc1cnc2c(c1)c(C)nn2Cc1cccc(C(F)(F)F)c1 [Compound 56, N-(3-methyl-1-(3-(trifluoromethyl)benzyl)-1H-pyrazolo[3,4-b]pyridin-5-yl)acrylamide] | < 40 | > 50 |
| C=CC(=O)Nc1cnc2c(c1)c(C)nn2C1=CCC(C(F)(F)F)CC1 (centres unmarked) [Compound 68, N-(3-methyl-1-(4-(trifluoromethyl)cyclohex-1-en-1-yl)-1H-pyrazolo[3,4-b]pyridin-5-yl)acrylamide] | 40 to 80 | > 50 |
| C=CC(=O)Nc1cnc2c(cnn2CC2CCCC2)c1 [Compound 8, N-(1-(cyclopentylmethyl)-1H-pyrazolo[3,4-b]pyridin-5-yl)acrylamide] | 40 to 80 | 30 to 50 |
| C=CC(=O)Nc1ccc2c(c1)CCN2Cc1ccc(C(F)(F)F)cc1 [Compound 7, N-(1-(4-(trifluoromethyl)benzyl)indolin-5-yl)acrylamide] | > 80 | > 50 |
| C=CC(=O)Nc1cnc2c(c1)c(C)nn2Cc1ccc(C(C)(C)C)cc1 [Compound 60, N-(1-(4-(tert-butyl)benzyl)-3-methyl-1H-pyrazolo[3,4-b]pyridin-5-yl)acrylamide] | 40 to 80 | < 30 |
| C=CC(=O)Nc1cnc2c(c1)c(C)cn2C1CCCCC1 [Compound 57, N-(1-cyclohexyl-3-methyl-1H-pyrrolo[2,3-b]pyridin-5-yl)acrylamide] | 40 to 80 | < 30 |
| C=CC(=O)Nc1cnc2c(n1)c(C)cn2-c1ccc(C(F)(F)F)cc1 [Compound 41, N-(7-methyl-5-(4-(trifluoromethyl)phenyl)-5H-pyrrolo[2,3-b]pyrazin-2-yl)acrylamide] | 40 to 80 | > 50 |
| C=CC(=O)Nc1cnc2c(ccn2-c2ccc(C(F)(F)F)cc2)n1 [Compound 46, N-(5-(4-(trifluoromethyl)phenyl)-5H-pyrrolo[2,3-b]pyrazin-2-yl)acrylamide] | 40 to 80 | < 30 |
| C=CC(=O)Nc1cnc2c(cnn2CCCOC(F)(F)F)c1 [Compound 12, N-(1-(3-(trifluoromethoxy)propyl)-1H-pyrazolo[3,4-b]pyridin-5-yl)acrylamide] | < 40 | < 30 |
| C=CC(=O)Nc1ccc2c(C)nn(Cc3ccc(C(F)(F)F)cc3)c2c1 [Compound 32, N-(3-methyl-1-(4-(trifluoromethyl)benzyl)-1H-indazol-6-yl)acrylamide] | 40 to 80 | > 50 |

The next lines start with results.

| inhibition at 5 µM [1] [%] | SMILES | inhibition at 0.2 µM [2] [%] |
| --- | --- | --- |
| > 80 | C=CC(=O)Nc1cnc2c(c1)c(C)nn2-c1ccc(C(C)C)cc1 [Compound 51, N-(1-(4-isopropylphenyl)-3-methyl-1H-pyrazolo[3,4-b]pyridin-5-yl)acrylamide] | < 30 |
| 40 to 80 | C=CC(=O)Nc1cnc2c(c1)c(C)nn2-c1ccc(F)nc1 [Compound 93, N-(1-(6-fluoropyridin-3-yl)-3-methyl-1H-pyrazolo[3,4-b]pyridin-5-yl)acrylamide] | 30 to 50 |
| < 40 | C=CC(=O)Nc1cnc2c(c1)c(C)nn2-c1ccc(N)cc1 [Compound 102, N-(1-(4-aminophenyl)-3-methyl-1H-pyrazolo[3,4-b]pyridin-5-yl)acrylamide] | < 30 |
| 40 to 80 | C=CC(=O)Nc1cnc2c(c1)c(C)nn2-c1ccccc1C [Compound 75, N-(3-methyl-1-(o-tolyl)-1H-pyrazolo[3,4-b]pyridin-5-yl)acrylamide] | < 30 |
| 40 to 80 | C=CC(=O)Nc1cnc2c(c1)c(C)nn2-c1ccc(C(F)F)cc1 [Compound 69, N-(1-(4-(difluoromethyl)phenyl)-3-methyl-1H-pyrazolo[3,4-b]pyridin-5-yl)acrylamide] | 30 to 50 |
| < 40 | C=CC(=O)Nc1cnc2c(c1)c(C)nn2-c1ccccc1OC [Compound 81, N-(1-(2-methoxyphenyl)-3-methyl-1H-pyrazolo[3,4-b]pyridin-5-yl)acrylamide] | < 30 |
| 40 to 80 | C=CC(=O)Nc1cnc2c(c1)c(C)nn2Cc1ccc(C(F)(F)F)s1 [Compound 62, N-(3-methyl-1-((5-(trifluoromethyl)thiophen-2-yl)methyl)-1H-pyrazolo[3,4-b]pyridin-5-yl)acrylamide] | 30 to 50 |
| 40 to 80 | C=CC(=O)Nc1cnc2c(c1)c(C)nn2-c1ccc(C(F)(F)F)s1 [Compound 89, N-(3-methyl-1-(5-(trifluoromethyl)thiophen-2-yl)-1H-pyrazolo[3,4-b]pyridin-5-yl)acrylamide] | > 50 |
| < 40 | C=CC(=O)Nc1cnc2c(c1)c(C)nn2Cc1ccc(C(F)F)cc1 [Compound 67, N-(1-(4-(difluoromethyl)benzyl)-3-methyl-1H-pyrazolo[3,4-b]pyridin-5-yl)acrylamide] | 30 to 50 |
| < 40 | C=CC(=O)Nc1cnc2c(c1)c(C)nn2-c1ccc(C#N)cc1 [Compound 104, N-(1-(4-cyanophenyl)-3-methyl-1H-pyrazolo[3,4-b]pyridin-5-yl)acrylamide] | > 50 |
| < 40 | C=CC(=O)Nc1cnc2c(c1)c(C)nn2-c1ccc(C(F)(F)F)cn1 [Compound 97, N-(3-methyl-1-(5-(trifluoromethyl)pyridin-2-yl)-1H-pyrazolo[3,4-b]pyridin-5-yl)acrylamide] | > 50 |
